From ChEMBL document CHEMBL1201862, “PubChem BioAssay data set” (2004)
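Each compound was tested at five concentrations against cells in 96-well plates for 48 hours. GI50 = concentration required for 50% inhibition of growth.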 Activity calls are given as the source filed them. Rule as the data show it: active = GI50 up to about 1.1 µM and inactive = higher.

Assays:
Assay in all cases: growth of human tumour cells (NCI), 48 h
[1] = tested on: 786-0
[2] = tested on: A549
[3] = tested on: ACHN
[4] = tested on: CCRF-CEM
[5] = tested on: COLO 205
[6] = tested on: EKVX
[7] = tested on: HCT-116
[8] = tested on: HCT-15
[9] = tested on: HL-60
[10] = tested on: HOP-62
[11] = tested on: HOP-92
[12] = tested on: IGROV-1
[13] = tested on: KM12
[14] = tested on: LOX IMVI
[15] = tested on: M14
[16] = tested on: MOLT-4
[17] = tested on: Malme-3M
[18] = tested on: NCI-H226
[19] = tested on: NCI-H460
[20] = tested on: NCI-H522
[21] = tested on: OVCAR-3
[22] = tested on: OVCAR-4
[23] = tested on: OVCAR-5
[24] = tested on: OVCAR-8
[25] = tested on: RPMI-8226
[26] = tested on: RXF 393
[27] = tested on: SF-268
[28] = tested on: SF-539
[29] = tested on: SK-MEL-28
[30] = tested on: SK-MEL-2
[31] = tested on: SK-MEL-5
[32] = tested on: SK-OV-3
[33] = tested on: SN12C
[34] = tested on: SNB-19
[35] = tested on: SW-620
[36] = tested on: T47D
[37] = tested on: U-251
[38] = tested on: UACC-62
[39] = tested on: UO-31
[40] = tested on: DU-145
[41] = tested on: Hs-578T
[42] = tested on: MCF7
[43] = tested on: MDA-MB-231
[44] = tested on: MDA-MB-435
[45] = tested on: MDA-N
[46] = tested on: NCI/ADR-RES
[47] = tested on: PC-3
[48] = tested on: A498
[49] = tested on: BT-549
[50] = tested on: CAKI-1
[51] = tested on: HCC 2998
[52] = tested on: HT-29
[53] = tested on: K562
[54] = tested on: NCI-H23
[55] = tested on: SF-295
[56] = tested on: SNB-75
[57] = tested on: TK-10
[58] = tested on: UACC-257

## N=C(N)SCCc1ccccn1
[1]
  GI50: > 100 µM (inactive)
[2]
  GI50: > 100 µM (inactive)
[3]
  GI50: > 100 µM (inactive)
[4]
  GI50: > 100 µM (inactive)
[5]
  GI50: > 100 µM (inactive)
[6]
  GI50: > 100 µM (inactive)
[7]
  GI50: > 100 µM (inactive)
[8]
  GI50: > 100 µM
[9]
  GI50: > 100 µM (inactive)
[10]
  GI50: > 100 µM (inactive)
[11]
  GI50: > 100 µM (inactive)
[12]
  GI50: > 100 µM (inactive)
[13]
  GI50: > 100 µM (inactive)
[14]
  GI50: > 100 µM (inactive)
[15]
  GI50: > 100 µM (inactive)
[16]
  GI50: > 100 µM (inactive)
[17]
  GI50: > 100 µM (inactive)
[18]
  GI50: > 100 µM (inactive)
[19]
  GI50: > 100 µM (inactive)
[20]
  GI50: > 100 µM (inactive)
[21]
  GI50: > 100 µM (inactive)
[22]
  GI50: > 100 µM (inactive)
[23]
  GI50: > 100 µM (inactive)
[24]
  GI50: > 100 µM (inactive)
[25]
  GI50: > 100 µM (inactive)
[26]
  GI50: > 100 µM (inactive)
[27]
  GI50: > 100 µM (inactive)
[28]
  GI50: > 100 µM (inactive)
[29]
  GI50: > 100 µM (inactive)
[30]
  GI50: > 100 µM (inactive)
[31]
  GI50: > 100 µM (inactive)
[32]
  GI50: > 100 µM (inactive)
[33]
  GI50: > 100 µM (inactive)
[34]
  GI50: > 100 µM (inactive)
[35]
  GI50: > 100 µM (inactive)
[36]
  GI50: > 100 µM (inactive)
[37]
  GI50: > 100 µM (inactive)
[38]
  GI50: > 100 µM (inactive)
[39]
  GI50: > 100 µM (inactive)

## COc1ccc2c(c[n+](C)c3c4cc5c(cc4ccc23)OCO5)c1OC
[40]
  GI50: > 100 µM (inactive)
[41]
  GI50: 80.4 µM (inactive)
[42]
  GI50: 9.55 µM (inactive)
[43]
  GI50: > 100 µM (inactive)
[44]
  GI50: 19.3 µM (inactive)
[45]
  GI50: 16.7 µM (inactive)
[46]
  GI50: 34.8 µM (inactive)
[47]
  GI50: 41.7 µM (inactive)
[26]
  GI50: > 100 µM (inactive)
[36]
  GI50: > 100 µM (inactive)

## Sc1nnc(CNc2ccc(-c3nnc(S)n3-c3ccc(Cl)cc3)cc2)n1-c1ccc(Cl)cc1
[1]
  GI50: 26.9 µM (inactive)
[48]
  GI50: 55.2 µM (inactive)
[2]
  GI50: 31.6 µM (inactive)
[3]
  GI50: 47.5 µM (inactive)
[49]
  GI50: 34.6 µM (inactive)
[50]
  GI50: 19.4 µM (inactive)
[5]
  GI50: 22.4 µM (inactive)
[40]
  GI50: 30.5 µM (inactive)
[6]
  GI50: 45.3 µM (inactive)
[51]
  GI50: 31.2 µM (inactive)
[7]
  GI50: 15.2 µM (inactive)
[8]
  GI50: 48 µM
[10]
  GI50: 18.5 µM (inactive)
[11]
  GI50: 23.9 µM (inactive)
[52]
  GI50: 25.3 µM (inactive)
[12]
  GI50: 3.21 µM (inactive)
[53]
  GI50: 30.8 µM (inactive)
[13]
  GI50: 18.5 µM (inactive)
[15]
  GI50: 25.2 µM (inactive)
[42]
  GI50: 40.3 µM (inactive)
[43]
  GI50: 20.2 µM (inactive)
[44]
  GI50: 28.3 µM (inactive)
[45]
  GI50: 26.1 µM (inactive)
[16]
  GI50: 26.2 µM (inactive)
[17]
  GI50: 6.58 µM (inactive)
[18]
  GI50: 40.7 µM (inactive)
[54]
  GI50: 39 µM (inactive)
[19]
  GI50: 31.4 µM (inactive)
[20]
  GI50: 15.2 µM (inactive)
[46]
  GI50: > 100 µM (inactive)
[22]
  GI50: 29.5 µM (inactive)
[23]
  GI50: 18.1 µM (inactive)
[47]
  GI50: 36 µM (inactive)
[25]
  GI50: 16.7 µM (inactive)
[26]
  GI50: 45.4 µM (inactive)
[27]
  GI50: 30.3 µM (inactive)
[55]
  GI50: 26.9 µM (inactive)
[29]
  GI50: 25.8 µM (inactive)
[30]
  GI50: 22.4 µM (inactive)
[31]
  GI50: 25.1 µM (inactive)
[32]
  GI50: 34.4 µM (inactive)
[33]
  GI50: 24.2 µM (inactive)
[34]
  GI50: 26.5 µM (inactive)
[56]
  GI50: 39.7 µM (inactive)
[35]
  GI50: 35.3 µM (inactive)
[57]
  GI50: 37.2 µM (inactive)
[37]
  GI50: 37.3 µM (inactive)
[58]
  GI50: 41.2 µM (inactive)
[38]
  GI50: 25.2 µM (inactive)
[39]
  GI50: 16.4 µM (inactive)

## COc1cc(/C=C2\S/C(=N/Nc3nc(-c4ccc(Br)cc4)cs3)NC2=O)cc(OC)c1OC
[1]
  GI50: 9.44 µM (inactive)
[2]
  GI50: 13.6 µM (inactive)
[3]
  GI50: 11 µM (inactive)
[49]
  GI50: 7.82 µM (inactive)
[50]
  GI50: 18.2 µM (inactive)
[4]
  GI50: 2.45 µM (inactive)
[5]
  GI50: 26.8 µM (inactive)
[40]
  GI50: 19.3 µM (inactive)
[6]
  GI50: 7.8 µM (inactive)
[51]
  GI50: 16.3 µM (inactive)
[7]
  GI50: 4.49 µM (inactive)
[8]
  GI50: 11.3 µM
[9]
  GI50: 2.08 µM (inactive)
[10]
  GI50: 10.5 µM (inactive)
[11]
  GI50: 3.63 µM (inactive)
[52]
  GI50: 18.4 µM (inactive)
[41]
  GI50: 11.9 µM (inactive)
[12]
  GI50: 12 µM (inactive)
[13]
  GI50: 7.73 µM (inactive)
[14]
  GI50: 9.29 µM (inactive)
[15]
  GI50: 15.6 µM (inactive)
[42]
  GI50: 15.4 µM (inactive)
[43]
  GI50: 14.3 µM (inactive)
[44]
  GI50: 15.5 µM (inactive)
[45]
  GI50: 17.4 µM (inactive)
[16]
  GI50: 3.78 µM (inactive)
[18]
  GI50: 4.09 µM (inactive)
[54]
  GI50: 5.11 µM (inactive)
[19]
  GI50: 11.9 µM (inactive)
[20]
  GI50: 12.5 µM (inactive)
[46]
  GI50: 15.9 µM (inactive)
[21]
  GI50: 13.6 µM (inactive)
[22]
  GI50: 17.8 µM (inactive)
[23]
  GI50: 18.2 µM (inactive)
[24]
  GI50: 14.5 µM (inactive)
[47]
  GI50: 4.03 µM (inactive)
[26]
  GI50: 4.07 µM (inactive)
[27]
  GI50: 20 µM (inactive)
[55]
  GI50: 12.4 µM (inactive)
[28]
  GI50: 8.83 µM (inactive)
[29]
  GI50: 10.4 µM (inactive)
[30]
  GI50: 15.1 µM (inactive)
[31]
  GI50: 5.02 µM (inactive)
[32]
  GI50: 13 µM (inactive)
[33]
  GI50: 28.6 µM (inactive)
[34]
  GI50: 4.74 µM (inactive)
[56]
  GI50: 9.2 µM (inactive)
[35]
  GI50: 8.55 µM (inactive)
[57]
  GI50: 12 µM (inactive)
[37]
  GI50: 2.99 µM (inactive)
[58]
  GI50: 18.2 µM (inactive)
[38]
  GI50: 11.1 µM (inactive)
[39]
  GI50: 3.91 µM (inactive)
